Where two headings read alike, the source gives them in different places.
What was measured:
AHR [1] = biological target: T1, AHR (Homo sapiens, UniProt P35869); test: In vitro assay 1: antagonism in human cell line (AHR transactivation, firefly luciferase reporter, kynurenic acid prestimulated); type: cell-based; conditions: AHR Antagonism Human IC50 [M]
T1 construct: U87 MG glioblastoma cells (ATCC #HTB-14) endogenously expressing AHR; endogenous in cells; host or cells: U87 MG glioblastoma cells (ATCC #HTB-14)
T1 sequence (P35869 11-848): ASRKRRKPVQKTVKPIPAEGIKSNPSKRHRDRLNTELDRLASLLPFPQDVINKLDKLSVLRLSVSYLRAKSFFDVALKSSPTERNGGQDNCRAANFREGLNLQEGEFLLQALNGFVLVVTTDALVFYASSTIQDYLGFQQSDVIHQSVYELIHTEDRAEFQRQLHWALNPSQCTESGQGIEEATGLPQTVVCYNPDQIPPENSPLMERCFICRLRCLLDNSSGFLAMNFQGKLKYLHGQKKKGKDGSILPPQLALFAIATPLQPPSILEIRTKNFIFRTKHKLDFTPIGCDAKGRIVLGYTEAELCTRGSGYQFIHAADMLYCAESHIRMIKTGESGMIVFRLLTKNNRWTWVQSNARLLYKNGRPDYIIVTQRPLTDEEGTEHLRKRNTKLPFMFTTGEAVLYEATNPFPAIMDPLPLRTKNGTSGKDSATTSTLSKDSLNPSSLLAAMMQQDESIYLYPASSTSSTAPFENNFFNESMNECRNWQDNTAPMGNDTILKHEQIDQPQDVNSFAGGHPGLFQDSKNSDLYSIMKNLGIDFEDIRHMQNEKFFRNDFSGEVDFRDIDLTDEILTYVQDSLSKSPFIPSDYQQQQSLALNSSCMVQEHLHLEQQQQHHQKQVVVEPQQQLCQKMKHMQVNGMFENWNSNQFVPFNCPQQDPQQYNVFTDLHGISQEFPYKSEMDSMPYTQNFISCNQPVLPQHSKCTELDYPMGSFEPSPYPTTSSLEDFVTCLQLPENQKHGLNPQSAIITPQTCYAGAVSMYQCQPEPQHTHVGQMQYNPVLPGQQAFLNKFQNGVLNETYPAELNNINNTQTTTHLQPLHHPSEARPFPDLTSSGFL
How it was run: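 U87 MG glioblastoma cells with endogenous AHR, stably carrying a DRE-driven firefly luciferase reporter and constitutive Renilla reporter, prestimulated with kynurenic acid before compound addition. Firefly and Renilla read by dual luciferase; Renilla flags toxicity; normalized to controls (150 μM kynurenic acid + 5 μM staurosporine as full inhibition); repeat values averaged or median.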

AHR [2] = biological target: T2, AHR (Mus musculus, UniProt P30561); test: In vitro assay 3: antagonism in mouse cell line (AHR transactivation, firefly luciferase reporter, kynurenic acid prestimulated); type: cell-based
T2 sequence (P30561 1-848 P471L/N533S/M589L): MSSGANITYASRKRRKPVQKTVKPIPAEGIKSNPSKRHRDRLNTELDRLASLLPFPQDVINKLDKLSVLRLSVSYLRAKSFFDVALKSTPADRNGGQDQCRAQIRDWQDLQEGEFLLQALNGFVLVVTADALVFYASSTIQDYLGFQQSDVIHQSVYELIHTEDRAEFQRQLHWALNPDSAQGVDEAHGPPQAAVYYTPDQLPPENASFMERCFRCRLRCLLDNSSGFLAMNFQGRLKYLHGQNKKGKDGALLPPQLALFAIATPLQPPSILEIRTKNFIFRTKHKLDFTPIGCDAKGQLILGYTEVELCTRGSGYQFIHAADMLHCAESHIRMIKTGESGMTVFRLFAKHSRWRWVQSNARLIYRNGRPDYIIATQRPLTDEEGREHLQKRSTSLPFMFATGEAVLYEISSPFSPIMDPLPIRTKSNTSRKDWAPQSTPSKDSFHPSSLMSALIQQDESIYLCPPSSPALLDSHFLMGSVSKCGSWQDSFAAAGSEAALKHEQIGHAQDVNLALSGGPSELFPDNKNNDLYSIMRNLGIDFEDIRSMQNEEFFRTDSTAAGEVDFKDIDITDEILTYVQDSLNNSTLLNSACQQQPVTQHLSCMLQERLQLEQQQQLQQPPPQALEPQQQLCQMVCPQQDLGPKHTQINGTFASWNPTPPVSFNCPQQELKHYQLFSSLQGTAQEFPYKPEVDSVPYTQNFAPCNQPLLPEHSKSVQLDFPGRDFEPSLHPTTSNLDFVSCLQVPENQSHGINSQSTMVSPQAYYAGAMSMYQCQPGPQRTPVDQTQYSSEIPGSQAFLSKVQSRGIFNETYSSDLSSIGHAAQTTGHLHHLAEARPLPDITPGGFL
How it was run: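 Cells were first stimulated with kynurenic acid, then exposed to test compound, after which firefly luciferase from a DRE-containing AHR reporter was read out. Signal was scaled between positive and negative controls. Cells not given kynurenic acid provided the inhibition reference.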

[3] = mouse Hepa 1c1c7 cells, 200 μM kynurenic acid, 20 hours, read-out: AHR Antagonism Mouse IC50
[4] = Hepa 1c1c7 cells, 200 μM kynurenic acid, 20 hours, firefly luciferase reporter, read-out: AHR Antagonism Mouse IC50

SMILES | IC50 (AHR [1]) | IC50 (AHR [2]; [3]) | IC50 (AHR [1]; firefly luciferase reporter) | IC50 (AHR [2]; [4]) | IC50 (AHR [2]; read-out: AHR Antagonism Mouse IC50, mouse Hepa 1c1c7 cells, 200 μM kynurenic acid, 20 hours)
O=C1NCCCC[C@@H]1Nc1nc2ccccc2c2nc(-c3cc(Cl)ccc3OC(F)(F)F)nn12 [Example 498, (3S)-3-({2-[5-chloro-2-(trifluoromethoxy)phenyl][1,2,4]triazolo[1,5-c]quinazolin-5-yl}amino)azepan-2-one] | > 2e-05 M | 700 nM |  |  | 
O=C1NCCCC[C@H]1Nc1nc2ccccc2c2nc(-c3ccc(Cl)cc3)nn12 [Example 6] | 5.93e-10 M | > 10000 nM |  |  | 
Cc1ccccc1-c1nc2c3ccccc3nc(NC3CNCCNC3=O)n2n1 (single isomer, unassigned) [Example 46, 6-{[2-(2-methylphenyl)[1,2,4]triazolo[1,5-c]quinazolin-5-yl]amino}-1,4-diazepan-5-one] | 2.93e-08 M | 5.25 nM |  |  | 
Cn1cc(-c2nc3c4cccc(F)c4nc(N[C@@H]4CNCCNC4=O)n3n2)cn1 [Example 428] | 2.44e-06 M | 561 nM |  |  | 
CC[C@@H](Nc1nc2ccccc2c2nc(-c3cc(C(F)(F)F)ccn3)nn12)C(N)=O [Example 367, (2R)-2-({2-[4-(trifluoromethyl)pyridin-2-yl][1,2,4]triazolo[1,5-c]quinazolin-5-yl}amino)butanamide] | 1.91e-07 M | 10.5 nM |  |  | 
COc1ccc(-c2nc3c4ccc(OC)cc4nc(N[C@@H]4CCCCNC4=O)n3n2)cc1 [Example 549, (3R)-3-{[8-methoxy-2-(4-methoxyphenyl)[1,2,4]triazolo[1,5-c]quinazolin-5-yl]amino}azepan-2-one] | 7.33e-08 M | 17400 nM |  |  | 
COc1cccc(-c2nc3c4ccccc4nc(N[C@H](CO)C(=O)O)n3n2)c1 [Example 91, N-[2-(3-methoxyphenyl)[1,2,4]triazolo[1,5-c]quinazolin-5-yl]-D-serine] | > 2e-05 M | > 20000 nM |  |  | 
COc1cccc(-c2nc3c4c(C)cccc4nc(NC4CCNC4=O)n3n2)c1 (single isomer, unassigned) [Example 191, 3-{[2-(3-methoxyphenyl)-10-methyl[1,2,4]triazolo[1,5-c]quinazolin-5-yl]amino}pyrrolidin-2-one] | 1.96e-07 M |  |  |  | 1090 nM
COc1ccc(-c2nc3c4cccc(C)c4nc(N[C@@H]4CCCCNC4=O)n3n2)cc1 [Example 143] | 2.42e-10 M | 0.884 nM |  |  | 
O=C1NCCC[C@H]1Nc1nc2ccccc2c2nc(-c3ccccc3OC(F)(F)F)nn12 [Example 458, (3R)-3-({2-[2-(trifluoromethoxy)phenyl][1,2,4]triazolo[1,5-c]quinazolin-5-yl}amino)piperidin-2-one] | 6.37e-08 M | 28 nM |  |  | 
O=C1NCCCC[C@H]1Nc1nc2ccccc2c2nc(-c3cccc(C(F)(F)F)n3)nn12 [Example 370, (3R)-3-({2-[6-(trifluoromethyl)pyridin-2-yl][1,2,4]triazolo[1,5-c]quinazolin-5-yl}amino)azepan-2-one] | 5.45e-08 M | 6.38 nM |  |  | 

The next lines start with results.

IC50 (AHR [1]) | IC50 (AHR [2]; [3]) | IC50 (AHR [1]; firefly luciferase reporter) | IC50 (AHR [2]; [4]) | SMILES | IC50 (AHR [2]; read-out: AHR Antagonism Mouse IC50, mouse Hepa 1c1c7 cells, 200 μM kynurenic acid, 20 hours)
 |  | 1.69e-08 M | 31.5 nM | C[C@@H](Nc1nc2c(C(F)(F)F)cccc2c2nc(-c3cnn(C)c3)nn12)C(=O)N1CCN(C)CC1 [Example 875, (2R)-1-(4-methylpiperazin-1-yl)-2-{[2-(1-methyl-1H-pyrazol-4-yl)-7-(trifluoromethyl)[1,2,4]triazolo[1,5-c]quinazolin-5-yl]amino}propan-1-one] | 
1.76e-07 M | 20.8 nM |  |  | COc1ccc(-c2nc3c4cccc(Br)c4nc(N[C@H]4CCCCNC4=O)n3n2)c(OC(F)(F)F)c1 [Example 566, (3S)-3-({7-bromo-2-[4-methoxy-2-(trifluromethoxy)phenyl][1,2,4]triazolo[1,5-c]quinazolin-5-yl}amino)azepan-2-one] | 
6.22e-09 M | 1.19 nM |  |  | CC[C@@H](Nc1nc2ccccc2c2nc(-c3ccc(Br)cc3OC(F)(F)F)nn12)C(N)=O [Example 697, (2R)-2-({2-[4-bromo-2-(trifluoromethoxy)phenyl][1,2,4]triazolo[1,5-c]quinazolin-5-yl}amino)butanamide] | 
 |  | 1.82e-09 M | 3.01 nM | Cn1cc(-c2nc3c4cccc(Br)c4nc(N[C@H]4CSCCNC4=O)n3n2)cn1 [Example 841, (6R)-6-{[7-bromo-2-(1-methyl-1H-pyrazol-4-yl)[1,2,4]triazolo[1,5-c]quinazolin-5-yl]amino}-1,4-thiazepan-5-one] | 
 |  | 7.72e-07 M | 286 nM | CC(C)n1cc(-c2nc3c4cccc(F)c4nc(N[C@@H]4CNCCNC4=O)n3n2)cn1 [Example 971, (6R)-6-({7-fluoro-2-[1-(propan-2-yl)-1H-pyrazol-4-yl][1,2,4]triazolo[1,5-c]quinazolin-5-yl}amino)-1,4-diazepan-5-one] | 
1.17e-09 M | 2.09 nM |  |  | COc1ccc(-c2nc3c4cccc(Br)c4nc(N[C@H](C)C(=O)NCCN4CCOCC4)n3n2)cc1 [Example 781, N^2-[7-bromo-2-(4-methoxyphenyl)[1,2,4]triazolo[1,5-c]quinazolin-5-yl]-N-[2-(morpholin-4-yl)ethyl]-D-alaninamide] | 
9.09e-08 M | 206 nM |  |  | O=C1NCCCC[C@H]1Nc1nc2ccccc2c2nc(-c3ccc(O)cc3F)nn12 [Example 634, (3R)-3-{[2-(2-fluoro-4-hydroxyphenyl)[1,2,4]triazolo[1,5-c]quinazolin-5-yl]amino}azepan-2-one] | 
3.9e-10 M | 0.656 nM |  |  | Cc1nn(C(C)C)cc1-c1nc2c3cccc(C(F)(F)F)c3nc(N[C@@H]3CCCCNC3=O)n2n1 [Example 748, (3R)-3-({2-[3-methyl-1-(propan-2-yl)-1H-pyrazol-4-yl]-7-(trifluoromethyl)[1,2,4]triazolo[1,5-c]quinazolin-5-yl}amino)azepan-2-one] | 
 |  | 8.75e-09 M | 2.16 nM | Cn1nccc1-c1nc2c3cccc(C(F)(F)F)c3nc(N[C@@H]3CNCCNC3=O)n2n1 [Example 946, (6R)-6-{[2-(1-methyl-1H-pyrazol-5-yl)-7-(trifluoromethyl)[1,2,4]triazolo[1,5-c]quinazolin-5-yl]amino}-1,4-diazepan-5-one] | 
5.4e-08 M | 109 nM |  |  | COc1cccc2c1nc(N[C@@H]1CCCCNC1=O)n1nc(-c3cnn(C4CC4)c3)nc21 [Example 757, (3R)-3-{[2-(1-cyclopropyl-1H-pyrazol-4-yl)-7-methoxy[1,2,4]triazolo[1,5-c]quinazolin-5-yl]amino}azepan-2-one] | 
1.03e-07 M | 221 nM |  |  | COc1ccc(-c2nc3c4cccc(N5CCOCC5)c4nc(N[C@@H]4CCCCNC4=O)n3n2)cc1 [Example 654, (3R)-3-{[2-(4-methoxyphenyl)-7-(morpholin-4-yl)[1,2,4]triazolo[1,5-c]quinazolin-5-yl]amino}azepan-2-one] | 

Source: US20230113037A1 (Bayer Aktiengesellschaft, priority 2019, published 2023)
